Measurements from patent US9358243B2, “Pharmaceutical compounds for use in the therapy of Clostridium difficile infection” (ETH Zurich, priority 2011, dated 2016).

Assays:
[1] = target: T1, His-tagged cysteine protease domain of C. difficile toxin B (Clostridioides difficile, UniProt P18177); assay: Determination of EC50 in presence of 10 mM Ca2+ (cleavage of TcdB cysteine protease domain, SDS-PAGE); type: biochemical, Clostridium difficile; settings: for cleavage activity at 100 μM: 100 μM compound, 10 mM Ca2+, FIG. 1A; for activity (cleavage of TcdB CPD) in the presence of calcium, compared with IP6: in the presence of calcium (10 mM Ca2+)
T1 construct: cysteine protease domain of C. difficile toxin B
T1 sequence (P18177 544-799 limits assumed): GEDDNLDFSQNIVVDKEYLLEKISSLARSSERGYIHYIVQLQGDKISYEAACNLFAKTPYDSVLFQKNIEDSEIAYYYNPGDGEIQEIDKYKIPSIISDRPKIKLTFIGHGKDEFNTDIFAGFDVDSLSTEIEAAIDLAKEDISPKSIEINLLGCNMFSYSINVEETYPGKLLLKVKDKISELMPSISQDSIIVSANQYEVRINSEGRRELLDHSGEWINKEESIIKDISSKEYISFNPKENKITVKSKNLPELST
Description: The compound to be tested was added to a recombinant His-tagged cysteine protease domain of C. difficile toxin B of SEQ ID 1 in presence of 10 mM Ca^2+ in 100 mM Tris pH7.4 and incubated for 2 h at 37° C. Cleaved protein fragments were separated by SDS-PAGE and visualized by Coomassie staining. The extent of cleavage quantified from protein band intensities using the ImageJ software package. Signals were normalized to cleavage of positive and negative controls.

[2] = target: T1, His-tagged cysteine protease domain of C. difficile toxin B; assay: Comparison of cleavage kinetics in presence of 10 mM Ca2+; type: biochemical, Clostridium difficile; settings: 37° C., FIG. 1B
Description: The compound to be tested was added to the His-tagged cysteine protease domain of C. difficile toxin B (same sequence as given above) in presence of 10 mM Ca^2+ in 100 mM Tris pH 7.4 and incubated for 24 h at 37° C., with aliquots removed at regular intervals. Cleaved protein fragments were separated, visualized and analyzed as indicated above.

Row | Compound | EC50 [1] [µM] | cleavage activity at 100 μM [1] | activity (cleavage of TcdB CPD) in the presence of calcium, compared with IP6 [1] | extent of cleavage after 4 h relative to IP6 [2] [fold]
1 | O=P(O)(O)O[C@H]1[C@H](OS(=O)(=O)O)[C@@H](OP(=O)(O)O)[C@H](OS(=O)(=O)O)[C@@H](OP(=O)(O)O)[C@H]1OS(=O)(=O)O [PSPSPS] | 20 | – | – | –
2 | myo-inositol-pentakisphosphate-2-PEG(400) [(7)] | – | retains residual activity | improved ability to cleave TcdB CPD | 5
3 | O=P(O)(O)O[C@H]1[C@H](OP(=O)(O)O)[C@@H](OP(=O)(O)O)[C@H](OP(=O)(O)O)[C@@H](OP(=O)(O)O)[C@H]1OP(=O)(O)O [IP6, myo-inositol hexakisphosphate, reference compound] | 601 | disappears almost completely | – | –
4 | O=S(=O)(O)OC1C(OS(=O)(=O)O)C(OS(=O)(=O)O)C(OS(=O)(=O)O)C(OS(=O)(=O)O)C1OS(=O)(=O)O (stereo not shown) [IS6, inositolhexakissulfate] | – | – | much more active than IP6 | –
